Columns and labels:
serotonin 5-HT3 receptor [1] = target: T1, serotonin 5-HT3 receptor (Cavia porcellus, UniProt O70212); assay: Serotonin 5-HT3 receptor antagonism, inhibition of 5-HT-induced contraction of guinea pig ileum longitudinal muscle; assay type: cell-based; conditions: inhibition ratio of contraction by 10 μM serotonin 5-HT after treatment with test compound 10 μM; Hartley guinea pig ileum
T1 construct: Longitudinal muscle samples of about 20 mm were prepared from the ileum of Hartley male guinea pigs; from tissue; host or cells: guinea pig (Hartley, male) ileum longitudinal muscle
T1 sequence (O70212 20-490): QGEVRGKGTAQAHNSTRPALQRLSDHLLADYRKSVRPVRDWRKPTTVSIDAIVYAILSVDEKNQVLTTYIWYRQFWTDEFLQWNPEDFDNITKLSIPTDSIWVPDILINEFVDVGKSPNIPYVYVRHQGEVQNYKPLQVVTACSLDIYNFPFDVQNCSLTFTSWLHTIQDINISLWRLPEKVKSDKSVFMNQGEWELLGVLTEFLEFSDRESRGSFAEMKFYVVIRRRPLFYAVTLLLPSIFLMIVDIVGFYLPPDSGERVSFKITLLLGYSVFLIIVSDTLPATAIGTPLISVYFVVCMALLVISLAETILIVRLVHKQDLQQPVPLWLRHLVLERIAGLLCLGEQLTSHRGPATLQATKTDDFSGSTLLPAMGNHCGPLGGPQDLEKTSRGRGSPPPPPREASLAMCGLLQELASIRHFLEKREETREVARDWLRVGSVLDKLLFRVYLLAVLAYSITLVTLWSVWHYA
Procedure: (§1) Of the novel and known benzoxazole compounds according to the present invention, typical compounds and the compounds disclosed in JP-A-6-345744, namely 5-methoxy-2-(4-methyl-1-piperazinyl)benzoxazole (A) and 2-(4-methyl-1-piperazinyl)naphtho[2,3-d]oxazole (B), were measured for their serotonin 5-HT3 receptor antagonism and serotonin 5-HT3 receptor activating action by the following method, with the results shown in Table 1. Test compounds of the present invention are shown by the Inventive Example numbers.
(§2) Longitudinal muscle samples of about 20 mm were prepared from the ileum of Hartley male guinea pigs (500 to 800 g). Each of the thus prepared samples was hung down in a Magnus tube with a resting tension of about 0.5 g to measure the isometric contraction reaction. Serotonin 5-HT was applied with a concentration of from 0.1 to 30 μM to the sample which has been subjected twice in advance to 1 hour of treatment with 0.3 μM serotonin 5-HT to effect desensitization of serotonin 5-HT4 receptor.
The i.a. value was expressed as the ratio of the maximum reaction of each compound when the maximum contraction reaction obtained by 10 μM of serotonin 5-HT was defined as 1. The pD2 value was. expressed as the negative logarithmic value of concentration (molar concentration) by which 50% of the maximum contraction reaction of each test compound can be obtained. […]

serotonin 5-HT3 receptor [2] = target: T1, serotonin 5-HT3 receptor; assay: 5-HT3 receptor activating action test, isometric contraction of guinea pig ileum longitudinal muscle; assay type: cell-based; conditions: for serotonin 5-HT3 receptor activating action (in words): guinea pig ileum contraction, summary of Table 1; for EC50: negative logarithm of molar concentration giving 50% of the compound's maximum contraction, read-out: Activation Action pD2 (converted); for EC50 / Activation Action i.a.: guinea pig ileum; for Activation Action i.a.: ratio of maximum reaction of compound to maximum contraction by 10 μM serotonin 5-HT defined as 1, 5-HT4 receptor desensitized
Procedure: 5-HT3 Receptor Activating Action Test
as §1, §2
The i.a. value was expressed as the ratio of the maximum reaction of each compound when the maximum contraction reaction obtained by 10 μM of serotonin 5-HT was defined as 1. The pD2 value was. expressed as the negative logarithmic value of concentration (molar concentration) by which 50% of the maximum contraction reaction of each test compound can be obtained. Also, antagonism of each test compound against the serotonin 5-HT3 receptor was calculated as the inhibition ratio of the contraction obtained by applying 10 μM of serotonin 5-HT (manufactured by Sigma) to a sample which has been treated with […] of each test sample to the contraction obtained by applying 10 μM of serotonin 5-HT to the sample before treatment.

mice = assay: Toxicity test, oral administration to mice; assay type: in vivo; conditions: dose of 300 mg/kg, dissolved in water, five-week-old male mice (5 animals)

In the case of COc1ccc2oc(N3CCN(C)CC3)nc2c1 [A, 5-methoxy-2-(4-methyl-1-piperazinyl)benzoxazole, reference compound], the inhibition at 10 µM (serotonin 5-HT3 receptor [1]) is reported as 34% and the “serotonin 5-HT3 receptor activating action (in words)” value (serotonin 5-HT3 receptor [2]) is reported as “does not have serotonin 5-HT3 receptor activating action”.
For CN1CCN(c2nc3cc4ccccc4cc3o2)CC1 [B, 2-(4-methyl-1-piperazinyl)naphtho[2,3-d]oxazole, reference compound], the inhibition at 10 µM (serotonin 5-HT3 receptor [1]) was 85%, the “serotonin 5-HT3 receptor activating action (in words)” value (serotonin 5-HT3 receptor [2]) was “weak in comparison with the compounds of the present invention” and the EC50 (serotonin 5-HT3 receptor [2]) was 3980 nM. The “Activation Action i.a.” value (serotonin 5-HT3 receptor [2]) was 0.45.
CN1CCN(c2nc3cc(Cl)ccc3o2)CC1 [Example 1, 5-Chloro-2-(4-methyl-1-piperazinyl)benzoxazole] was tested, and the inhibition at 10 µM (serotonin 5-HT3 receptor [1]) was 92%, the EC50 (serotonin 5-HT3 receptor [2]) was 398 nM and the “Activation Action i.a.” value (serotonin 5-HT3 receptor [2]) was 0.55.
For C=CC[N+]1(C)CCN(c2nc3cc(Cl)ccc3o2)CC1 [Example 2], the inhibition at 10 µM (serotonin 5-HT3 receptor [1]) was 90%, the EC50 (serotonin 5-HT3 receptor [2]) was 224 nM and the “Activation Action i.a.” value (serotonin 5-HT3 receptor [2]) was 0.57.
For CN1CCN(c2nc3cc(Cl)c(N)cc3o2)CC1 [Example 5, 6-Amino-5-chloro-2-(4-methyl-1-piperazinyl)benzoxazole], the inhibition at 10 µM (serotonin 5-HT3 receptor [1]) was 95%, the EC50 (serotonin 5-HT3 receptor [2]) was 676 nM and the “Activation Action i.a.” value (serotonin 5-HT3 receptor [2]) was 0.59.
In the case of C=CC[N+]1(C)CCN(c2nc3cc(Cl)c(N)cc3o2)CC1.[Br-] [Example 7, 1-Allyl-1-methyl-4-(6-amino-5-chlorobenzoxazol-2-yl)piperazinium bromide], the inhibition at 10 µM (serotonin 5-HT3 receptor [1]) is reported as 67%, the EC50 (serotonin 5-HT3 receptor [2]) is reported as 316 nM and the “Activation Action i.a.” value (serotonin 5-HT3 receptor [2]) is reported as 0.94.
Nc1cc2oc(N3CCNCC3)nc2cc1Cl [Example 10, 6-Amino-5-chloro-2-(1-piperazinyl)benzoxazole] was tested, and the inhibition at 10 µM (serotonin 5-HT3 receptor [1]) was 88%, the EC50 (serotonin 5-HT3 receptor [2]) was 676 nM and the “Activation Action i.a.” value (serotonin 5-HT3 receptor [2]) was 0.69.
For Cc1cc(C)c2oc(N3CCNCC3)nc2c1 [Example 13, 5,7-Dimethyl-2-(1-piperazinyl)benzoxazole], the mortality (mice) was “No mortal case”, the inhibition at 10 µM (serotonin 5-HT3 receptor [1]) was 100% and the EC50 (serotonin 5-HT3 receptor [2]) was 100 nM. For the same compound, the “Activation Action i.a.” value (serotonin 5-HT3 receptor [2]) was 0.18.
With c1ccc2oc(N3CCNCC3)nc2c1 [Example 14, 2-(1-Piperazinyl)benzoxazole] the inhibition at 10 µM (serotonin 5-HT3 receptor [1]) was 75%.
Cc1ccc2oc(C3CCNCC3)nc2c1 [Example 16, 2-(4-Piperidyl)-5-methylbenzoxazole] was tested, and the inhibition at 10 µM (serotonin 5-HT3 receptor [1]) was 82%, the EC50 (serotonin 5-HT3 receptor [2]) was 617 nM and the “Activation Action i.a.” value (serotonin 5-HT3 receptor [2]) was 0.24.
For CN1CCN(c2nc3c(ccc4ccccc43)o2)CC1 [Example 21, 2-(4-Methyl-1-piperazinyl)naphtho[1,2-d]oxazole], the inhibition at 10 µM (serotonin 5-HT3 receptor [1]) was 85%, the EC50 (serotonin 5-HT3 receptor [2]) was 501 nM and the “Activation Action i.a.” value (serotonin 5-HT3 receptor [2]) was 0.26.
For C=CC[N+]1(C)CCN(c2nc3cc(C)ccc3o2)CC1.[Br-] [Example 25, 1-Allyl-1-methyl-4-(5-methylbenzoxazol-2-yl)piperazinium bromide], the inhibition at 10 µM (serotonin 5-HT3 receptor [1]) was 86%, the EC50 (serotonin 5-HT3 receptor [2]) was 708 nM and the “Activation Action i.a.” value (serotonin 5-HT3 receptor [2]) was 0.79.
C=CC[N+]1(C)CCN(c2nc3cccc(C)c3o2)CC1.[Br-] [Example 28, 1-Allyl-1-methyl-4-(7-methylbenzoxazol-2-yl)piperazinium bromide] was tested, and the mortality (mice) was “No mortal case”.
In the case of Cc1cc(Cl)cc2nc(N3CCN(C)CC3)oc12 [Example 31, 5-Chloro-7-methyl-2-(4-methyl-1-piperazinyl)benzoxazole], the inhibition at 10 µM (serotonin 5-HT3 receptor [1]) is reported as 85%, the EC50 (serotonin 5-HT3 receptor [2]) is reported as 200 nM and the “Activation Action i.a.” value (serotonin 5-HT3 receptor [2]) is reported as 0.24.
In the case of Cc1cc(C)c2oc(N3CCCN(C)CC3)nc2c1 [Example 36, 5,7-Dimethyl-2-(4-methyl-1-homopiperazinyl)benzoxazole], the inhibition at 10 µM (serotonin 5-HT3 receptor [1]) is reported as 96%, the EC50 (serotonin 5-HT3 receptor [2]) is reported as 63.1 nM and the “Activation Action i.a.” value (serotonin 5-HT3 receptor [2]) is reported as 0.28.
In the case of Cc1cc(Cl)cc2nc(N3CCCN(C)CC3)oc12 [Example 37, 5-Chloro-7-methyl-2-(4-methyl-1-homopiperazinyl)benzoxazole], the inhibition at 10 µM (serotonin 5-HT3 receptor [1]) is reported as 98%, the EC50 (serotonin 5-HT3 receptor [2]) is reported as 20 nM and the “Activation Action i.a.” value (serotonin 5-HT3 receptor [2]) is reported as 0.15.
CN1CCCN(c2nc3c(ccc4ccccc43)o2)CC1 [Example 40, 2-(4-Methyl-1-homopiperazinyl)naphtho[1,2-d]oxazole] was tested, and the inhibition at 10 µM (serotonin 5-HT3 receptor [1]) was 89%, the EC50 (serotonin 5-HT3 receptor [2]) was 79.4 nM and the “Activation Action i.a.” value (serotonin 5-HT3 receptor [2]) was 0.21.
